These results are taken from ChEMBL document CHEMBL1817587, “DNA site-specific N3-adenine methylation targeted to estrogen receptor-positive cells” (Bioorg Med Chem, 2011).

Structures are written as SMILES. Activity calls are given as the source filed them. The calls are words filed in the database; no cut-off is given here.

The subject of assay [1] is Nucleic Acid. Description: Induction of DNA methylation at calf thymus DNA assessed as 3-MeA adduct level per mol of DNA after 24 hrs by reverse phase HPLC. Type of assay: nucleic-acid assay. The conditions noted are these: Bos taurus.
Assay [2] deals with Nucleic Acid. The assay is described as follows: Induction of DNA methylation at calf thymus DNA assessed as 3-MeA adduct level per mol of DNA at 5000 uM after 24 hrs by reverse phase HPLC in presence of 100 uM netropsin. Type of assay: nucleic-acid assay. The following applies: Bos taurus.
For assay [3], the system named is Nucleic Acid. The assay is described as follows: Induction of DNA methylation at calf thymus DNA assessed as 3-MeA adduct level per mol of DNA at 5000 uM after 24 hrs by reverse phase HPLC. In kind it is nucleic-acid assay. The conditions noted are these: Bos taurus.
For assay [4], the system named is MCF7. Description: Cytotoxicity against human MCF7 cells after 16 hrs by MTT assay. In kind it is functional, cell-based. The following applies: MCF7, 16 h. In general terms: Tetrazolium dyes change colour on reduction, which living cells bring about.
Assay [5] concerns Nucleic Acid. Description: Induction of DNA methylation at calf thymus DNA assessed as 7-MeG adduct level per mol of DNA after 24 hrs by reverse phase HPLC. In kind it is nucleic-acid assay. The following applies: Bos taurus.
The subject of assay [6] is Nucleic Acid. Description: Induction of DNA methylation at calf thymus DNA assessed as total adduct level at 500 uM after 24 hrs by reverse phase HPLC relative to methylmethane sufonate. The following applies: Bos taurus. In kind it is nucleic-acid assay.
Assay [7] relates to Nucleic Acid. The assay is described as follows: Induction of DNA methylation at calf thymus DNA assessed as 7-MeG adduct level per mol of DNA at 100 uM after 24 hrs by reverse phase HPLC in presence of 100 uM netropsin. Type of assay: nucleic-acid assay. The following applies: Bos taurus.
Assay [8] deals with Nucleic Acid. Description: Induction of DNA methylation at calf thymus DNA assessed as 3-MeA adduct level per mol of DNA at 100 uM after 24 hrs by reverse phase HPLC in presence of 100 uM netropsin. Type of assay: nucleic-acid assay. The following applies: Bos taurus.
The test system of assay [9] is Nucleic Acid. The assay is described as follows: Induction of DNA methylation at calf thymus DNA assessed as 7-MeG level at 500 uM after 24 hrs by reverse phase HPLC relative to methylmethane sufonate. Type of assay: nucleic-acid assay. The following applies: Bos taurus.
Assay [10] deals with Nucleic Acid. The assay is described as follows: Induction of DNA methylation at calf thymus DNA assessed as 3-MeA level at 500 uM after 24 hrs by reverse phase HPLC relative to methylmethane sufonate. In kind it is nucleic-acid assay. The conditions noted are these: Bos taurus.
The test system of assay [11] is Nucleic Acid. Description: Induction of DNA methylation at calf thymus DNA assessed as 7-MeG adduct level per mol of DNA at 100 uM after 24 hrs by reverse phase HPLC. In kind it is nucleic-acid assay. The conditions noted are these: Bos taurus.
Assay [12] has as its system MCF7. The assay is described as follows: Ratio of methylmethane sufonate EC50 to compound EC50 for human MCF7 cells after 16 hrs by MTT assay. In kind it is functional.
The subject of assay [13] is MCF7. Description: Ratio of EC50 for human MCF7 cells pretreated with 100 uM netropsin to compound EC50 for human MCF7 cells. Type of assay: functional.
In assay [14] the test system is MCF7. The assay is described as follows: Cytotoxicity against human MCF7 cells at 250 uM after 16 hrs by MTT assay pretreated with 250 uM fulvestrant. Type of assay: functional, cell-based.
For assay [15], the system named is Nucleic Acid. Description: Induction of DNA methylation at calf thymus DNA assessed as 7-MeG adduct level per mol of DNA at 50 uM after 24 hrs by reverse phase HPLC in presence of 100 uM netropsin. Type of assay: nucleic-acid assay. The conditions noted are these: Bos taurus.
For assay [16], the system named is Nucleic Acid. The assay is described as follows: Induction of DNA methylation at calf thymus DNA assessed as 3-MeA adduct level per mol of DNA at 50 uM after 24 hrs by reverse phase HPLC. In kind it is nucleic-acid assay. The following applies: Bos taurus.
Assay [17] concerns Nucleic Acid. Description: Induction of DNA methylation at calf thymus DNA assessed as 3-MeA adduct level per mol of DNA at 50 uM after 24 hrs by reverse phase HPLC in presence of 100 uM netropsin. The conditions noted are these: Bos taurus. In kind it is nucleic-acid assay.
Assay [18] concerns MCF7. Description: Ratio of Me-lex EC50 to compound EC50 for human MCF7 cells after 16 hrs by MTT assay. Type of assay: functional.
Assay [19] relates to Nucleic Acid. The assay is described as follows: Induction of DNA methylation at calf thymus DNA assessed as 7-MeG adduct level per mol of DNA at 50 uM after 24 hrs by reverse phase HPLC. In kind it is nucleic-acid assay. The conditions noted are these: Bos taurus.
Assay [20] has as its system MCF7. Description: Cytotoxicity against human MCF7 cells after 16 hrs by MTT assay pretreated with 100 uM netropsin. Type of assay: functional, cell-based.
The test system of assay [21] is MCF7. Description: Cytotoxicity against human MCF7 cells at 500 uM after 16 hrs by MTT assay. Type of assay: functional, cell-based.
Assay [22] concerns the target T1, Estrogen receptor (Homo sapiens) (UniProt P03372).
T1 sequence (whole entry): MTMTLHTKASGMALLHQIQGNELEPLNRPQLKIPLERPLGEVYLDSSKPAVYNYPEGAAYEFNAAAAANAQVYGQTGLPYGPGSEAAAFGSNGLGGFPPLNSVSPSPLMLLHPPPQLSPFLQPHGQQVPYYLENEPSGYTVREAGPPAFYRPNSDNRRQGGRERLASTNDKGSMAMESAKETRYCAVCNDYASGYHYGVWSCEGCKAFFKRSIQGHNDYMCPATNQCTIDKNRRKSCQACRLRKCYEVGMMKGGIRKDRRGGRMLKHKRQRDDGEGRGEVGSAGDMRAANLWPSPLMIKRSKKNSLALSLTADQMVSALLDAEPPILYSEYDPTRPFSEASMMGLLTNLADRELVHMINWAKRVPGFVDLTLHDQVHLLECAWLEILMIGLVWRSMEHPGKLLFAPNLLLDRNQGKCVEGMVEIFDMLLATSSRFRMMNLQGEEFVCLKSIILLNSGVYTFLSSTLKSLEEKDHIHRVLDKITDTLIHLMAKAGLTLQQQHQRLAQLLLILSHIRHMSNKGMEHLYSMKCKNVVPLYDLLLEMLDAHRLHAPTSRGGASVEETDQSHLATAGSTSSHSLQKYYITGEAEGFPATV
Description: (§1) Binding affinity to estrogen receptor-alpha after 2 hrs by TR-FRET assay. (TR-FRET usually uses a lanthanide donor and a delayed reading to cut background.)

The target in another assay is T2, Estrogen receptor (Homo sapiens, UniProt P03372).
T2 sequence (P03372 whole entry): T1 sequence (whole entry)
Described as §1.

Usually EC50 stands for the concentration needed to bring the measured effect to its halfway point. As for `COS(C)(=O)=O` [METHANESULFONIC ACID METHYL ESTER], the Activity with Nucleic Acid [1] worked out at 9%; in the assay with Nucleic Acid [2] it was 1240 µmol; in the assay with Nucleic Acid [3], 1800 µmol. Besides, in the assay on MCF7 [4], the EC50 came out at 2750 µM.
For `CCCNC(=O)CCCNC(=O)c1cc(NC(=O)c2cc(NC(=O)CCS(=O)(=O)OC)cn2C)cn1C`, the Activity came to 96% in the assay with Nucleic Acid [1]; 90% in the assay with Nucleic Acid [5]; 614 µmol in the assay with Nucleic Acid [7]; 657 µmol with Nucleic Acid [8]; 496 µmol in the assay with Nucleic Acid [11]. Besides, the fold change (FC) with Nucleic Acid [6] amounted to 37; with Nucleic Acid [9], 1.4; in the assay on Nucleic Acid [10] it was 391. This molecule also had an EC50 with MCF7 [4] of 214 µM.
Turning to `COS(=O)(=O)CCC(=O)Nc1cc(C(=O)Nc2cc(C(=O)NCCCC(=O)NCCCCCC[C@@H]3Cc4cc(O)ccc4[C@H]4CC[C@]5(C)[C@@H](O)CC[C@H]5[C@H]34)n(C)c2)n(C)c1`, the Activity in the assay on Nucleic Acid [1] came to 86%; in the assay on Nucleic Acid [5], 14%; with Nucleic Acid [15], 279 µmol; in the assay on Nucleic Acid [16], 1760 µmol; in the assay with Nucleic Acid [17] it was 167 µmol; with Nucleic Acid [19], 280 µmol. In addition, the results for the “Ratio EC50” value with MCF7 [12], in the assay on MCF7 [13] and in the assay on MCF7 [18] were 20, 3 and 1.5, respectively. For the same molecule, the outcome with MCF7 [14] was inactive. Further, the fold change (FC) in the assay with Nucleic Acid [6] amounted to 11; in the assay with Nucleic Acid [9], 1.5; in the assay with Nucleic Acid [10] it was 98. Moreover, the EC50 in the assay on MCF7 [4] worked out at 135 µM; in the assay on MCF7 [20], 479 µM.
By IC50 is commonly meant the midpoint of a concentration-inhibition curve. The low end stands for inhibition by little substance, the high end for a need for much substance. As for `Cn1cc(NC(=O)c2cc(NC(=O)CCS(C)(=O)=O)cn2C)cc1C(=O)NCCCC(=O)NCCCCCC[C@@H]1Cc2cc(O)ccc2[C@H]2CC[C@]3(C)[C@@H](O)CC[C@H]3[C@H]12`, the result with MCF7 [21] was inactive. The RBA in assay [22] was determined as 51%. Besides, at Estrogen receptor, the IC50 was determined as 0.00111 µM.
